Data published in ChEMBL document CHEMBL1151768, “Resin glycoside constituents of Ipomoea pes-caprae (beach morning glory)” (J Nat Prod, 2008).
Calls of active or inactive are those of the source.

What was measured:
Bacillus subtilis = assay: Antimicrobial activity against Bacillus subtilis by agar dilution method; assay type: functional, organism-based
Candida albicans = assay: Antimicrobial activity against Candida albicans by agar dilution method; assay type: functional, organism-based
Klebsiella aerogenes = assay: Antimicrobial activity against Enterobacter aerogenes by agar dilution method; assay type: functional, organism-based
P388 = assay: Cytotoxicity against mouse P388 cells by MTT assay; assay type: functional, cell-based
Staphylococcus aureus = assay: Antimicrobial activity against Staphylococcus aureus by agar dilution method; assay type: functional, organism-based
[1] = molecular target: Mu-type opioid receptor (Rattus norvegicus) (UniProt P33535); assay: Displacement of [3H]DAMGO from rat mu opioid receptor expressed in GH3 cells; assay type: cell-based
Escherichia coli = assay: Antimicrobial activity against Escherichia coli by agar dilution method; assay type: functional, organism-based
HL-60 = assay: Cytotoxicity against human HL60 cells by MTT assay; assay type: functional, cell-based
A549 = assay: Cytotoxicity against human A549 cells by SRB method; assay type: functional, cell-based
Bel-7402 = assay: Cytotoxicity against human BEL-7402 cells by SRB method; assay type: functional, cell-based

Measured: Activity

Sequence of Mu-type opioid receptor (Rattus norvegicus) (P33535 whole entry): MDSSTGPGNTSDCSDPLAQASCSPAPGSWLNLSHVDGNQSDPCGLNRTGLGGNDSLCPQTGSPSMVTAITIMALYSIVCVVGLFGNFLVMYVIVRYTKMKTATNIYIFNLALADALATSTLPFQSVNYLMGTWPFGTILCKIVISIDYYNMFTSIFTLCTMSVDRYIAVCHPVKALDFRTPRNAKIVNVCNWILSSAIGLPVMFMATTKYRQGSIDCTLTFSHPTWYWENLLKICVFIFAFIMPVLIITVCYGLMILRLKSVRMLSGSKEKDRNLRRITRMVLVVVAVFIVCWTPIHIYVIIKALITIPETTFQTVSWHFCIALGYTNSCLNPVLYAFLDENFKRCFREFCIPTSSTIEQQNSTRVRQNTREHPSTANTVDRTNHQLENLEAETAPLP

CCCCCCCCCC(=O)O[C@H]1[C@H](O[C@@H]2[C@@H](O)[C@H]3OC(=O)CCCCCCCCCC[C@H](CCCCC)O[C@@H]4O[C@H](C)[C@H](O)[C@H](O)[C@H]4O[C@@H]3O[C@H]2C)O[C@@H](C)[C@H](O[C@@H]2O[C@@H](C)[C@H](OC(=O)C(C)C)[C@@H](OC(=O)/C=C/c3ccccc3)[C@H]2O)[C@H]1O[C@@H]1O[C@@H](C)[C@H](O)[C@@H](O)[C@H]1O
inactive: all assays above
